Measured values from patent publication US9480259B2, “Pyrazolopyrans having herbicidal and pharmaceutical properties” (BASF SE, priority 2012, dated 2016).

Target: Arabidopsis thaliana SHMT
Test: SHMT activity assay (ED50 SHMT), coupled with N5,N10-CH2-THF dehydrogenase, NADH at 340 nm
Format: biochemical
Method: Determination of the ED50 SHMT was carried out as described hereinunder.
Purification of Arabidopsis thaliana SHMT
The following buffers were used during the purification protocol:
Buffer A (Lysis and Wash Buffer): • 20 mM Na-Phosphat (pH 7,4) • 500 mM NaCI • 40 mM Imidazole • 1.0 mM L-Serine • 0.5 mM Pyridoxal-5-phosphate • 0.5 mM DTT
Buffer B (Elution Buffer): • 20 mM Na-Phosphat (pH 7,4) • 500 mM NaCl • 250 mM Imidazole • 1.0 mM L-Serine • 0.5 mM Pyridoxal-5-phosphate • 0.5 mM DTT
All procedures were conducted at 4° C. or on ice. Pellets were suspended in Buffer A containing 1 mg/ml DNAse +Complete EDTA-free protease inhibitor tablet. Cells were lysed using sonication or a French Press device, using standard settings. Lysis was centrifuged at 40000×g for 25 minutes. The supernatant was filtered (0.22 μM) before loading onto a Ni-NTA column.
A gravity flow column containing Ni-NTA resin was equilibrated with 10 CV Buffer A and loaded with filtered cell lysate. The column was then washed with 10 CV Buffer A. Elution was afforded using Buffer B and collected manually as mini-factions. EDTA was added after elution to a final concentration of 1 mM. Fractions were pooled on the basis of the correct band for SHMT visualised via SDS-PAGE and staining.
SHMT Assay Buffer: • 50 mM KH2PO4 (pH 7,4) • 2.0 mM NAD+ • 7.5 mM DTT • 0.3 mM Tetrahydrofolic acid • 4% DMSO
Reaction Start: 20 mM L-Serine
The rate of N5,N10-CH2-THF formation catalyzed by SHMT was monitored at 340 nm by coupling with excess N5,N10-CH2-THF dehydrogenase, which converts NAD+to NADH. Reactions were initiated by adding 20 mM L-Serine. Inhibition of initial velocity was determined by adding various inhibitors of the SHMT reaction and monitored as described. Reactions were measured in a Bio Tek micro titer plate reader following the change in absorption with the formation of NADH for 30 mimnutes.

[1] = Table 2, values given as upper bounds
[2] = Table 2, Arabidopsis thaliana SHMT enzyme assay, values given as upper bounds
[3] = inhibition of initial velocity of Arabidopsis thaliana SHMT
[4] = Arabidopsis thaliana SHMT enzyme assay, values given as upper bounds

SMILES	EC50 [1]	EC50 [2]	other results
Cc1n[nH]c2c1C(c1cc(C#N)cc(N(C)CCC#N)c1)(C1CCC1)C(C#N)=C(N)O2 (stereo not shown) [Compound 2.629]	< 10 nM		
N#CC1=C(N)Oc2[nH]ncc2C1(c1ccc(Cl)c(OC(F)(F)F)c1)C1CCC1 (stereo not shown) [Compound 2.290]		< 100 nM	
Cc1n[nH]c2c1C(c1cc(Cl)cc(Cl)c1)(C(F)(F)F)C(C#N)=C(N)O2 (stereo not shown) [Compound 2.88.]	< 1000 nM		
CCC1(c2cc(Cl)cc(C#N)c2)C(C#N)=C(N)Oc2[nH]nc(OC)c21 (stereo not shown) [Compound 2.598]	< 1000 nM		
CSc1cccc(C2(C3CCC3)C(C#N)=C(N)Oc3[nH]nc(C)c32)c1 (stereo not shown) [Compound 2.310]		< 10 nM	
CCC1(c2ccc3[nH]c(=O)oc3c2)C(C#N)=C(N)Oc2[nH]nc(C)c21 (stereo not shown) [Compound 4.72]			EC50 [3]: < 1000 nM
CCCC1(c2cc(C#N)cc(C(F)(F)F)c2)C(C#N)=C(N)Oc2[nH]nc(OC)c21 (stereo not shown) [Compound 2.600]	< 1000 nM		
Cc1n[nH]c2c1C(c1cc(C#N)cc(-c3cccc(Cl)c3)c1)(C1CCC1)C(C#N)=C(N)O2 (stereo not shown) [Compound 2.332]		< 10 nM	
Cc1n[nH]c2c1C(c1cc(Cl)cc(-c3ccsc3)c1)(C1CCC1)C(C#N)=C(N)O2 (stereo not shown) [Compound 2.198.]	< 10 nM		
CCC1(c2ccc(OC)c(OC)c2)C(C#N)=C(N)Oc2[nH]nc(C)c21 (stereo not shown) [Compound 2.21.]	< 1000 nM		
Cc1n[nH]c2c1C(c1cccc([S+](C)[O-])c1)(C1CCC1)C(C#N)=C(N)O2 (stereo not shown) [Compound 2.312]		< 1000 nM	
COc1c(C#N)cc(C2(C3CCC3)C(C#N)=C(N)Oc3[nH]nc(C)c32)cc1C(F)(F)F (stereo not shown) [Compound 2.491]	< 10 nM		
Cc1n[nH]c2c1C(c1cc3ccc(Cl)cc3s1)(C1CCC1)C(C#N)=C(N)O2 (stereo not shown) [Compound 4.63]			EC50 [3]: < 1000 nM
COC(=O)c1ccc(-c2cc(C#N)cc(C3(C4CCC4)C(C#N)=C(N)Oc4[nH]nc(C)c43)c2)cc1F (racemic) [Compound 2.521]	< 10 nM		
CCC1(c2cc(Br)cc(C#N)c2)C(C#N)=C(N)Oc2[nH]nc(COC)c21 (stereo not shown) [Compound 2.590]	< 1000 nM		
CC1(C)C=Cc2cc(C3(C4CCC4)C(C#N)=C(N)Oc4[nH]ncc43)cc(F)c2O1 (stereo not shown) [Compound 4.31]			EC50 [3]: < 10 nM
COc1ccc(C2(C(C)C)C(C#N)=C(N)Oc3[nH]nc(C)c32)cc1C(F)(F)F (stereo not shown) [Compound 2.144.]	< 10 nM		
COC(=O)Cc1ccc(-c2cc(C#N)cc(C3(C4CCC4)C(C#N)=C(N)Oc4[nH]nc(C)c43)c2)cc1 (stereo not shown) [Compound 2.526]	< 10 nM		
N#CC1=C(N)Oc2[nH]ncc2C1(c1cc(I)cc(I)c1)C1CCC1 (stereo not shown) [Compound 2.309]		< 10 nM	
Cc1n[nH]c2c1C(c1cc(Cl)cc(OCC#N)c1)(C1CCC1)C(C#N)=C(N)O2 (stereo not shown) [Compound 2.443]	< 10 nM		

SMILES	EC50 [1]	EC50 [2]	other results
Cc1n[nH]c2c1C(c1ccc(F)c(Cl)c1)(C1CCC1)C(C#N)=C(N)O2 (stereo not shown) [Compound 2.182.]	< 100 nM		
Cc1n[nH]c2c1C(c1cc(F)cc(C#N)c1)(C1CCC1)C(C#N)=C(N)O2 (stereo not shown) [Compound 2.258]		< 10 nM	
Cc1n[nH]c2c1C(c1cc(C#N)cc(-c3ccc(Cl)cc3)c1)(C1CCC1)C(C#N)=C(N)O2 (stereo not shown) [Compound 2.333]		< 10 nM	
Cc1n[nH]c2c1C(c1cc(Cl)cc(Br)c1)(C1CC1)C(C#N)=C(N)O2 (stereo not shown) [Compound 2.146.]	< 100 nM		
Cc1n[nH]c2c1C(c1cc(C(F)(F)F)cc(C(F)(F)F)c1)(C1CC(O)C1)C(C#N)=C(N)O2 (racemic) [Compound 2.540]	< 100 nM		
Cc1n[nH]c2c1C(c1cc(Cl)cc(-c3ccc(-c4nnn[nH]4)cc3)c1)(C1CCC1)C(C#N)=C(N)O2 (stereo not shown) [Compound 2.493]	< 10 nM		
Cc1n[nH]c2c1C(c1cc(Cl)cc(Cl)c1)(C1CCC1)C(C#N)=C(N)O2 (stereo not shown) [Compound 2.154.]	< 10 nM		
N#CC1=C(N)Oc2[nH]nc(O)c2C1(c1cc(F)cc(Cl)c1)C1CCC1 (stereo not shown) [Compound 2.231]		< 10000 nM	
COc1ccc(C2(C3(F)CC3)C(C#N)=C(N)Oc3[nH]nc(C)c32)cc1C(F)(F)F (stereo not shown) [Compound 2.267]		< 10 nM	
Cc1n[nH]c2c1C(c1cc(Cl)c(Cl)c(C(F)(F)F)c1)(C1CCC1)C(C#N)=C(N)O2 (stereo not shown) [Compound 2.273]		< 10 nM	
Cc1n[nH]c2c1C(c1cccc(C(F)(F)F)c1)(C(F)(F)F)C(C#N)=C(N)O2 (stereo not shown) [Compound 2.95.]	< 1000 nM		
Cc1n[nH]c2c1C(c1ccc(Cl)c(Cl)c1)(C1(F)CC1)C(C#N)=C(N)O2 (stereo not shown) [Compound 2.245]		< 10 nM	
COc1ccc2cc(C3(C4(F)CC4)C(C#N)=C(N)Oc4[nH]nc(C)c43)ccc2c1 (racemic) [Compound 4.40]			EC50 [3]: < 10 nM
Cc1n[nH]c2c1C(c1cccc(-c3ccc(C(=O)O)cc3)c1)(C1CCC1)C(C#N)=C(N)O2 (stereo not shown) [Compound 2.495]	< 10 nM		
Cc1n[nH]c2c1C(c1cc(C#N)cc(C(=O)O)c1)(C1CCC1)C(C#N)=C(N)O2 (stereo not shown) [Compound 2.371]		< 1000 nM	
Cc1n[nH]c2c1C(c1cc(Cl)cc(-c3cccc(F)c3)c1)(C1CC1)C(C#N)=C(N)O2 (stereo not shown) [Compound 2.187.]	< 100 nM		
Cc1n[nH]c2c1C(c1cc(Cl)cc(CCCC#N)c1)(C1CCC1)C(C#N)=C(N)O2 (stereo not shown) [Compound 2.670]			EC50 [4]: < 10 nM
CCC1(c2ccc(C)c(Br)c2)C(C#N)=C(N)Oc2[nH]nc(C)c21 (stereo not shown) [Compound 2.466]	< 100 nM		
Cc1n[nH]c2c1C(c1ccc(-c3ccc(F)cc3)s1)(C1CCC1)C(C#N)=C(N)O2 (stereo not shown) [Compound 4.8]			EC50 [3]: < 10 nM
CCCC1(c2cc(C#N)cc(C#N)c2)C(C#N)=C(N)Oc2[nH]nc(C(F)F)c21 (stereo not shown) [Compound 2.610]	< 100 nM		

SMILES	EC50 [1]	EC50 [2]	other results
COCOc1cc(C#N)cc(C2(C3CCC3)C(C#N)=C(N)Oc3[nH]nc(C)c32)c1 (stereo not shown) [Compound 2.477]	< 10 nM		
Cc1n[nH]c2c1C(c1cc(C#N)cc(-c3ccsc3Cl)c1)(C1CCC1)C(C#N)=C(N)O2 (stereo not shown) [Compound 2.363]		< 10 nM	
Cc1n[nH]c2c1C(c1cc(Cl)cc(-c3ccco3)c1)(C1CCC1)C(C#N)=C(N)O2 (stereo not shown) [Compound 2.262]		< 10 nM	
Cc1n[nH]c2c1C(c1cc(Cl)cc(-c3ccc(C(=O)O)cc3)c1)(C1CCC1)C(C#N)=C(N)O2 (stereo not shown) [Compound 2.483]	< 10 nM		
COCOc1cc(Cl)cc(C2(C3CCC3)C(C#N)=C(N)Oc3[nH]nc(C)c32)c1 (stereo not shown) [Compound 2.445]	< 10 nM		
Cc1n[nH]c2c1C(c1cc(C#N)cc(-c3ccc(F)cc3)c1)(C1CCC1)C(C#N)=C(N)O2 (stereo not shown) [Compound 2.328]		< 10 nM	
CCCCCCc1n[nH]c2c1C(CC)(c1cccc(Cl)c1)C(C#N)=C(N)O2 (stereo not shown) [Compound 2.197.]	< 1000 nM		
Cc1n[nH]c2c1C(c1cc(C#N)cc(N(C)S(=O)(=O)CC#N)c1)(C1CCC1)C(C#N)=C(N)O2 (stereo not shown) [Compound 2.724]			EC50 [4]: < 100 nM
Cc1n[nH]c2c1C(c1cc(Cl)cc(-c3cccc(C(F)(F)F)c3)c1)(C1CCC1)C(C#N)=C(N)O2 (stereo not shown) [Compound 2.249]		< 10 nM	
Cc1n[nH]c2c1C(c1cc(C#N)cc(-c3ccc(C(=O)O)o3)c1)(C1(F)COC1)C(C#N)=C(N)O2 (stereo not shown) [Compound 2.681]			EC50 [4]: < 10000 nM
Cc1n[nH]c2c1C(c1cc(C#N)cc(OCc3nnn[nH]3)c1)(C1CCC1)C(C#N)=C(N)O2 (stereo not shown) [Compound 2.475]	< 10 nM		
Cc1n[nH]c2c1C(c1cc(C#N)cc(C#N)c1)(C(C)F)C(C#N)=C(N)O2 (stereo not shown) [Compound 2.687]			EC50 [4]: < 100 nM
Cc1n[nH]c2c1C(c1cc(Br)cc(Br)c1)(C1CC=CC1)C(C#N)=C(N)O2 (stereo not shown) [Compound 2.300]		< 10 nM	
Cc1n[nH]c2c1C(c1ccc(CC(=O)O)c(C(F)(F)F)c1)(C1CCC1)C(C#N)=C(N)O2 (stereo not shown) [Compound 2.544]	< 100 nM		
Cc1n[nH]c2c1C(c1cc(C#N)cc(OCC(=O)O)c1)(C1CCC1)C(C#N)=C(N)O2 (stereo not shown) [Compound 2.625]	< 100 nM		
CCOc1n[nH]c2c1C(c1cc(C#N)cc(C(F)(F)F)c1)(C1CCC1)C(C#N)=C(N)O2 (stereo not shown) [Compound 2.391]		< 100 nM	
Cc1n[nH]c2c1C(c1cccc(C(F)(F)F)c1)(C1CCCCC1)C(C#N)=C(N)O2 (stereo not shown) [Compound 2.230]		< 10000 nM	
Cc1n[nH]c2c1C(c1cc(Cl)cc(-c3ccc(Cl)cc3)c1)(C1CCC1)C(C#N)=C(N)O2 (stereo not shown) [Compound 2.225]		< 10 nM	
